In ChEMBL document CHEMBL1201862, “PubChem BioAssay data set” (2004):
The source made the active and inactive calls.

What was measured:
Leucine aminopeptidase = biological target: T1, Leucine aminopeptidase (Plasmodium falciparum 3D7, UniProt Q8IL11); assay: P. falciparum M17LAP inhibitors, primary screen, biochemical, fluorogenic H-Leu-NHMec substrate, 1536-well (AID 1619); type: functional
T1 sequence (Q8IL11 whole entry): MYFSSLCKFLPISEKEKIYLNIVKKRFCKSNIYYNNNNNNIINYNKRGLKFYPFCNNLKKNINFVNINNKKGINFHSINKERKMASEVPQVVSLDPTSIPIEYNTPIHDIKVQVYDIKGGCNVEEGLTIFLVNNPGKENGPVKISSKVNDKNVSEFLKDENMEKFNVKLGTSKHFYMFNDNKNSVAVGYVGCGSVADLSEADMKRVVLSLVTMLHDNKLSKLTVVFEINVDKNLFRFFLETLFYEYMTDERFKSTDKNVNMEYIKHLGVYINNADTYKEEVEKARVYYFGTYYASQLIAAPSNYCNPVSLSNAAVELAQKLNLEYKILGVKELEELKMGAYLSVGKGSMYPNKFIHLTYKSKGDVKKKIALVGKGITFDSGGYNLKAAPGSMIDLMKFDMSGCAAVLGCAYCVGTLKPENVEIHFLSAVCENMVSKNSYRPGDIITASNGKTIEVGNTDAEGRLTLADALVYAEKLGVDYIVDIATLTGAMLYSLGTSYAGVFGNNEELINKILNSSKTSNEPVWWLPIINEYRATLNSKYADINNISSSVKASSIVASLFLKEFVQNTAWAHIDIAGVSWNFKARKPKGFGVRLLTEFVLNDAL

[1] = biological target: T2, Microphthalmia-associated transcription factor (Homo sapiens, UniProt O75030); assay: TRPM1 promoter luciferase signal decrease, dose response, MITF inhibitor project, cell-based, SK-MEL-5, cherry-picked, set 3 (AID 493073); type: functional
T2 sequence (O75030 whole entry): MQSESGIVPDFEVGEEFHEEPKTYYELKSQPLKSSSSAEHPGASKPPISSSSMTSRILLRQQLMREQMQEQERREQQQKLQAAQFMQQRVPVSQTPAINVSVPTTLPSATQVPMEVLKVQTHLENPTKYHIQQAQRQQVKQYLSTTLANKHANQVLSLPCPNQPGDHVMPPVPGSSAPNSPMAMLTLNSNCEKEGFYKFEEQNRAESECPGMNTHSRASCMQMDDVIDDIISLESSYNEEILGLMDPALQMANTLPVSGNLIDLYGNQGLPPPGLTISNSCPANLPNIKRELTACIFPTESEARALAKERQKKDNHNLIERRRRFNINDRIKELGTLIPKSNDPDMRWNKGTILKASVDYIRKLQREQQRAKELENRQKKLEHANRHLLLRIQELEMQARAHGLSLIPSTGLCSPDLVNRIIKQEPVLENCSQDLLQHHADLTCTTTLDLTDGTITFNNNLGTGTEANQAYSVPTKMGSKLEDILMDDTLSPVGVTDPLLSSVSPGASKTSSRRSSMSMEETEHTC

[2] = Shn3 3'UTR reporter inhibitors, dose response, cell-based, Clone20 osteoblasts, firefly luciferase, cherry-picked (AID 624132); type: functional;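 note: firefly luciferase luminescence from reporter carrying the Shn3 3'UTR in osteoblasts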
[3] = HepG2 cell cytotoxicity, dose response, cytotoxicity control for Shn3 inhibitor project, CellTiter-Glo, cherry-picked (AID 624134); type: functional, cell-based
[4] = control 3'UTR Renilla luciferase suppression, dose response, counter-screen for Shn3 inhibitor project, cell-based, Clone20-Shn3RL, cherry-picked (AID 624133); type: functional
[5] = biological target: T3, Replicative DNA helicase DnaB (Mycobacterium tuberculosis, UniProt P9WMR3); assay: DnaB intein splicing inhibitors, dose response, biochemical, cell-free fluorescence (AID 449749); type: functional
T3 sequence (P9WMR3 whole entry): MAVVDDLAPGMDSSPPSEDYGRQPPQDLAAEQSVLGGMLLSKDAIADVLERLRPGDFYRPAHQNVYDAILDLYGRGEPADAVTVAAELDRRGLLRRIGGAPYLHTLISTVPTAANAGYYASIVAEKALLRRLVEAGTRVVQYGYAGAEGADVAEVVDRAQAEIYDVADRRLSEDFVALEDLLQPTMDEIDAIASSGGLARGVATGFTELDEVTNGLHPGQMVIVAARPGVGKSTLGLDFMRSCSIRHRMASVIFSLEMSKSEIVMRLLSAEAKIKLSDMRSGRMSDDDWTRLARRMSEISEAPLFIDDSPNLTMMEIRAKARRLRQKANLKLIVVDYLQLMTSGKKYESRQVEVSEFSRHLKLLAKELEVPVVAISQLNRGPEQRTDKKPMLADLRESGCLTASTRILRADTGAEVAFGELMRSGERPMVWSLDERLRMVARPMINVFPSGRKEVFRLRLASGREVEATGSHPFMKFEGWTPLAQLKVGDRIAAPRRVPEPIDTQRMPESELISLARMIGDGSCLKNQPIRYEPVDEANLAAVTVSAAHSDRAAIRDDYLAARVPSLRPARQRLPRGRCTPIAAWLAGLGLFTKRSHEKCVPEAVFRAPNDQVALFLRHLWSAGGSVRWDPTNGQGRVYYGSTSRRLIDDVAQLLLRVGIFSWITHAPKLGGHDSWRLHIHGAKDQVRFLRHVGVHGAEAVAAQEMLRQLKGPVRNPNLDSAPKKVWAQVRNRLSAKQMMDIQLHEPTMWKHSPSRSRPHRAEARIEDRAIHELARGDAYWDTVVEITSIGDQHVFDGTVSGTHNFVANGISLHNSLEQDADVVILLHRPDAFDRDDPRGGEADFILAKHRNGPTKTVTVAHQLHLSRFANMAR

Protein RecA = biological target: T4, Protein RecA (Mycobacterium tuberculosis, UniProt P9WHJ3); assay: Fluorescence Cell-Free Homogeneous Dose Retest to Identify Inhibitors of RecA-Intein Splicing Activity. [Related pubchem assays (depositor defined):AID2097, AID2223, AID489010, AID492950]; type: functional
T4 sequence (P9WHJ3 whole entry): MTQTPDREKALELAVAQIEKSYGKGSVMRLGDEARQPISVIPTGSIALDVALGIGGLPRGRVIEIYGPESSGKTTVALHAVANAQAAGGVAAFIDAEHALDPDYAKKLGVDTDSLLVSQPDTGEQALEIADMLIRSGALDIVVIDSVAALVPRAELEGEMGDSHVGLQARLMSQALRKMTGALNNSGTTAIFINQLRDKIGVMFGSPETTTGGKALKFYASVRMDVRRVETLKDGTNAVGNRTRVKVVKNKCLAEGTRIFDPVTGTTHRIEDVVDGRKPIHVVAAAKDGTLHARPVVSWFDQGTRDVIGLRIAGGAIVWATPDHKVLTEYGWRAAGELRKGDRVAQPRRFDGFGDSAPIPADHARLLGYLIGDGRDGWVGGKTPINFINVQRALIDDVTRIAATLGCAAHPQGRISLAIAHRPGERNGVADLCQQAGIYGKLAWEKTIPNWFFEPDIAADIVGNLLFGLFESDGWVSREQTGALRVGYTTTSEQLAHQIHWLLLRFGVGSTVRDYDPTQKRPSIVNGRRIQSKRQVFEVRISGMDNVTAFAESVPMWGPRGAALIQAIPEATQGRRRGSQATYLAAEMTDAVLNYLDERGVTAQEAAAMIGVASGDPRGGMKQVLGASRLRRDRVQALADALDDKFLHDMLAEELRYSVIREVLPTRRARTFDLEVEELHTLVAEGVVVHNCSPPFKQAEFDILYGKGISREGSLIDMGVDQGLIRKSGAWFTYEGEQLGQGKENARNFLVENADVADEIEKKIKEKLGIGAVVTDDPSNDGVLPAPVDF

[6] = test system: Streptococcus sp. 'group A'; assay: growth inhibition of control SK(-) GAS strain, dose response, counter-screen for streptokinase expression inhibitor project, luminescence, kanamycin, BacTiterGlo, confirmation (AID 1900); type: functional, organism-based
Streptokinase A = biological target: T5, Streptokinase A (Streptococcus pyogenes serotype M1, UniProt P10520); assay: S. pyogenes streptokinase expression inhibitors, potency, dose response, plasminogen activation absorbance, OD405 (AID 1914); type: functional, Streptococcus pyogenes M1 GAS;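 note: secreted streptokinase activity via plasminogen activation per viability signal from cell pellet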
T5 sequence (P10520 whole entry): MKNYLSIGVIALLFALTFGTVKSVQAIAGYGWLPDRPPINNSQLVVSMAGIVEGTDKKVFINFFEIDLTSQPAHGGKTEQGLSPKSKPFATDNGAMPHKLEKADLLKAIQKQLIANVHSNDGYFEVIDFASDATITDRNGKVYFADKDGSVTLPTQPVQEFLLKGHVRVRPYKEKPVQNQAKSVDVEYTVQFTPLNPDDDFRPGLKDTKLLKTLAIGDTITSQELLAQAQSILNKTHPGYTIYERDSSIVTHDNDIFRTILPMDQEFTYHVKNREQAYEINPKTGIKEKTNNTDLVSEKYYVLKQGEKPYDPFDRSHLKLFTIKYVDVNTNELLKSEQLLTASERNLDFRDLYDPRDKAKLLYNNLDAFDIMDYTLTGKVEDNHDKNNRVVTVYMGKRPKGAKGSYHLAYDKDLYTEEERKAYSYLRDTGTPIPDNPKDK

Streptococcus = assay: Group A Streptococcus viability loss, dose response, counter-screen for streptokinase expression inhibitor project, luminescence, BacTiterGlo (AID 1915); type: functional, organism-based;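 note: potency for reduction of bacterial viability or growth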
[7] = biological target: T6, Endoribonuclease toxin MazF (Escherichia coli K-12, UniProt P0AE70); assay: MazF toxin RNase activators, dose response, biochemical, fluorescence, single-stranded RNA substrate, uHTS hits (AID 588481); type: functional
T6 sequence (P0AE70 whole entry): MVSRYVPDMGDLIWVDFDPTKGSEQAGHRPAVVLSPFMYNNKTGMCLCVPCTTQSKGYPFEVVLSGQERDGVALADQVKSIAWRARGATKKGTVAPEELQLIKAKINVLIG

[8] = biological target: T6, Endoribonuclease toxin MazF; assay: fluorescent RNA oligo signal without MazF, dose response, counter-screen for MazEF activator project, biochemical, fluorescence, single-stranded RNase substrate (AID 588502); type: functional
Paired box protein Pax-8 = Paired box protein Pax-8 (Homo sapiens, UniProt Q06710); assay: inhibitors of PAX8-driven TPO luciferase reporter, dose response, RMG-I cells, cherry-pick (AID 687027); type: functional, cell-based;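 note: luciferase reporter driven by Pax8 target thyroperoxidase promoter measured by SteadyGlo luminescence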
Paired box protein Pax-8, sequence (Q06710 whole entry): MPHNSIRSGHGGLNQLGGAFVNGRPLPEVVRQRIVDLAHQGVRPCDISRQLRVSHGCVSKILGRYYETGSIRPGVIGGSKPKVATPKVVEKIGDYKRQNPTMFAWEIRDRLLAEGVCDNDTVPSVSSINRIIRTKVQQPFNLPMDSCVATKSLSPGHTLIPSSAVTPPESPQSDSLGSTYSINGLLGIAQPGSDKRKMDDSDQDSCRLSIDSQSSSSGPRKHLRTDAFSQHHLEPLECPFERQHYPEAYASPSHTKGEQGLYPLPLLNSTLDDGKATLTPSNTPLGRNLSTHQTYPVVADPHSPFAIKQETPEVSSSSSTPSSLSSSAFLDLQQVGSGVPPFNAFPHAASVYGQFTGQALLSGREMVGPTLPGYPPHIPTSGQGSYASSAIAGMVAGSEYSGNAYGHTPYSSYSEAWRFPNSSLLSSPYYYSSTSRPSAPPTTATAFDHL

[9] = biological target: T7, DNA repair protein RAD52 homolog (Homo sapiens, UniProt P43351); type: functional, biochemical
T7 sequence (P43351 whole entry): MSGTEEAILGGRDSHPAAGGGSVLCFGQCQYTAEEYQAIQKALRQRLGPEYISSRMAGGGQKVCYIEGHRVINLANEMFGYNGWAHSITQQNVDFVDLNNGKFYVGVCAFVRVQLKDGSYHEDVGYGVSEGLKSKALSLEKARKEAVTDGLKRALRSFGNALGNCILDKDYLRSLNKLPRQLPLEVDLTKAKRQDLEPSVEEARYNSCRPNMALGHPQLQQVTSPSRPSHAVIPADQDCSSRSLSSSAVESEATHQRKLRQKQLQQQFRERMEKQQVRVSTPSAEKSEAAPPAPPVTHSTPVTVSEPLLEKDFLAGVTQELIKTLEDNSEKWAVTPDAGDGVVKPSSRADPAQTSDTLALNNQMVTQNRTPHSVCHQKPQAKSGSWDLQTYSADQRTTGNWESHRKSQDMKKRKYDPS

[10] = biological target: T8, RNA-binding protein pos-1 (Caenorhabditis elegans, UniProt G5EF15); assay: inhibitors of POS-1/mex-3 RNA binding, dose response, biochemical, fluorescence polarization (AID 1964);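 note: purified POS-1 fused to maltose binding protein made in E. coli; potency of compounds blocking POS-1 binding to fluorescent RNA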
T8 sequence (G5EF15 whole entry): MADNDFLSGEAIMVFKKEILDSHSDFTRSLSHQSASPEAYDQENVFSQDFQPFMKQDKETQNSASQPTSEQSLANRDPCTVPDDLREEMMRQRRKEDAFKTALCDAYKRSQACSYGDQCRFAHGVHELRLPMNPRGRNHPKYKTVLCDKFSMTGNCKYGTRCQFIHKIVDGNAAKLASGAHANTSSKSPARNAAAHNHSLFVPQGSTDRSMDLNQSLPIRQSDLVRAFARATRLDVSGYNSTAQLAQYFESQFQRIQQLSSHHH

[11] = biological target: T9, Zinc finger protein mex-5 (Caenorhabditis elegans, UniProt Q9XUB2); assay: MEX-5/TCR-2 RNA interaction inhibitors, dose response, biochemical, C. elegans, fluorescence polarization (AID 1960)
T9 sequence (Q9XUB2 whole entry): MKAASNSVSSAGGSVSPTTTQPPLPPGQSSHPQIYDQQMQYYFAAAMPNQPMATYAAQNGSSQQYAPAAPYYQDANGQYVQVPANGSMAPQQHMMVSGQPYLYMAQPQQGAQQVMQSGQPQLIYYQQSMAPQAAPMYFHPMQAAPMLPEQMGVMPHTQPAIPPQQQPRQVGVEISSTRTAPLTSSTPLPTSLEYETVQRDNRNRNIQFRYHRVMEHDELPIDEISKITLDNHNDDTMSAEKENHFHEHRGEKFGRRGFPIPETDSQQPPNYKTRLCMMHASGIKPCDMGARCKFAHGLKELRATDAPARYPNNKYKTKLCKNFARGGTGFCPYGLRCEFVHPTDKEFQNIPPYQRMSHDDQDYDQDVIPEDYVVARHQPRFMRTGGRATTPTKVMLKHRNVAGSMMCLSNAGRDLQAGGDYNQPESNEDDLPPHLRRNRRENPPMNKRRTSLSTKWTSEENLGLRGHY

SMILES: CCOc1ccc(NC(=O)CSc2n[nH]c(N)n2)c([N+](=O)[O-])c1
- IC50 (Leucine aminopeptidase): 12.7 µM (active)

SMILES: O=C(c1ccco1)c1c[nH]nc1-c1ccc(Cl)cc1O
- IC50 (Leucine aminopeptidase): 101 µM (active)

SMILES: CC(=O)Nc1nc(C)c(-c2csc(Nc3cccc(C(C)=O)c3)n2)s1
- AC50 [1]: 8.38 µM (active)
- AC50 [2]: 1.67 µM (active)
- AC50 [3]: 21 µM (active)
- AC50 [4]: < 0.5 µM (active)

SMILES: N#CC1=C(N)Oc2nc(-c3ccccc3)[nH]c2C1c1cccnc1 (centres undefined)
- IC50 (Leucine aminopeptidase): 66.6 µM (active)
- AC50 [5]: 11.3 µM (active)
- EC50 (Protein RecA): 2.6 µM (active)

SMILES: N#C/C(=C(/O)c1ccc([N+](=O)[O-])o1)c1nc2ccccc2[nH]1
- EC50 [6]: 3.57 µM (active)
- EC50 (Streptokinase A): 27.6 µM (active)
- EC50 (Streptococcus): 66 µM (active)
- AC50 [1]: 3.8 µM (active)
- EC50 [7]: > 99 µM (inactive)
- EC50 [8]: 5.53 µM (active)

SMILES: CN(C)CC(C(=O)Cc1ccccc1)c1ccccc1 (centres undefined)
- AC50 [2]: 7.81 µM (active)
- AC50 [3]: 14.5 µM (active)
- AC50 [4]: 7.58 µM (active)
- AC50 (Paired box protein Pax-8): 1.71 µM (active)

SMILES: CN1CCN(CCCNc2nc3ccccc3c3nc(-c4ccccc4)nn23)CC1
- AC50 [9]: 14.2 µM (active)

SMILES: COc1nccnc1NS(=O)(=O)c1ccc(/N=C/c2c(C)[nH]n(-c3ccccc3)c2=O)cc1
- IC50 (Leucine aminopeptidase): 35 µM (active)

SMILES: CCN1CCN(Cc2c(C(=O)N/N=C(\C)c3ccc(Cl)cc3)nnn2-c2nonc2N)CC1
- EC50 [10]: > 300 µM (not active)
- EC50 [11]: > 300 µM (not active)
- AC50 [9]: 8.73 µM (active)
